Reference: patent US10870832B2, “Use of small molecules to enhance MAFA expression in pancreatic endocrine cells” (Janssen Biotech, Inc., priority 2014, dated 2020)

Legend:
CDK5/p35(h) = CDK5/p35(h) (Homo sapiens, UniProt Q00535); test: Kinase profiling of R428; format: biochemical; details: 100 μM ATP, lower number = more robust inhibition
Method: (§1) The efficiency of the AXL inhibitor R428 for targeting different kinases was assessed by Kinase Profiling Services using 100 μM ATP concentration (EMD Millipore). R428 was tested at 1 and 10 μM. Table IV lists the kinases profiled along with the efficiency in targeting the kinases with a lower number indicating a more robust inhibition of a particular kinase.

CHK2(h) = CHK2(h) (Homo sapiens, UniProt O96017); test: Kinase profiling of R428; format: biochemical; details: 100 μM ATP, lower number = more robust inhibition
Method: as §1

Eph A 2(h) = Eph A 2(h) (Homo sapiens, UniProt P29317); test: Kinase profiling of R428; format: biochemical; details: 100 μM ATP, lower number = more robust inhibition
Sequence of Eph A 2(h) (P29317 24-976): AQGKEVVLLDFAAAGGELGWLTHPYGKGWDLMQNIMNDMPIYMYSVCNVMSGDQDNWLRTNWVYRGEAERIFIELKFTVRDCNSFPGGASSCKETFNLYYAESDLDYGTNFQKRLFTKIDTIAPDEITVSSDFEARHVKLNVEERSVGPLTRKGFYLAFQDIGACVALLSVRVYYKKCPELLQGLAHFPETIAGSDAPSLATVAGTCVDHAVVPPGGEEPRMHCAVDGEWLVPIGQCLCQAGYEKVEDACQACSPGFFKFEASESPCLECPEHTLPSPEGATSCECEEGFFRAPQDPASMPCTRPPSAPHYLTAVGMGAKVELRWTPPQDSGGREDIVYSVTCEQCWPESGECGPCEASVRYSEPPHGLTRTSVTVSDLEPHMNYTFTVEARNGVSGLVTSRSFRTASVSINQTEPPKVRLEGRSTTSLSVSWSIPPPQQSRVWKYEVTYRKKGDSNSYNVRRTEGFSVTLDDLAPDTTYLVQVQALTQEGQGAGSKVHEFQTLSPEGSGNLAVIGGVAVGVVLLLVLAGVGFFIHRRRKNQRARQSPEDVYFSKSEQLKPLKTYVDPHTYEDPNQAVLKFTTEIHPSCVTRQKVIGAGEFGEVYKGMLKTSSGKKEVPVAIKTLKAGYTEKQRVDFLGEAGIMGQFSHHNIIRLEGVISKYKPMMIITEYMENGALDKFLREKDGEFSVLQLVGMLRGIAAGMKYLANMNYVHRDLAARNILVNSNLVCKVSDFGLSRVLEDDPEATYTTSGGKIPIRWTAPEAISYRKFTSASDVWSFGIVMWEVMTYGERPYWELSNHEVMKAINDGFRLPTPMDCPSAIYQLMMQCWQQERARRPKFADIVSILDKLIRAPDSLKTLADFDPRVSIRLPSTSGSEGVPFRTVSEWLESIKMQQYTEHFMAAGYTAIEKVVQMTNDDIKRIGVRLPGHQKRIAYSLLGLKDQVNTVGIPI
Method: as §1

GSK3 a(h) = GSK3 a(h) (Homo sapiens, UniProt P49840); test: Kinase profiling of R428; format: biochemical; details: 100 μM ATP, lower number = more robust inhibition
Method: as §1

GSK313(h) = GSK313(h) (Homo sapiens, UniProt P49841); test: Kinase profiling of R428; format: biochemical; details: 100 μM ATP, lower number = more robust inhibition
Method: as §1

IGF-1R(h) = IGF-1R(h) (Homo sapiens, UniProt P08069); test: Kinase profiling of R428; format: biochemical; details: 100 μM ATP, lower number = more robust inhibition
Method: as §1

IR(h) = IR(h) (Homo sapiens, UniProt P06213); test: Kinase profiling of R428; format: biochemical; details: 100 μM ATP, lower number = more robust inhibition
Method: as §1

IRAK4(h) = IRAK4(h) (Homo sapiens, UniProt Q9NWZ3); test: Kinase profiling of R428; format: biochemical; details: 100 μM ATP, lower number = more robust inhibition
Method: as §1

JAK2(h) = JAK2(h) (Homo sapiens, UniProt O60674); test: Kinase profiling of R428; format: biochemical; details: 100 μM ATP, lower number = more robust inhibition
Sequence of JAK2(h) (O60674 whole entry): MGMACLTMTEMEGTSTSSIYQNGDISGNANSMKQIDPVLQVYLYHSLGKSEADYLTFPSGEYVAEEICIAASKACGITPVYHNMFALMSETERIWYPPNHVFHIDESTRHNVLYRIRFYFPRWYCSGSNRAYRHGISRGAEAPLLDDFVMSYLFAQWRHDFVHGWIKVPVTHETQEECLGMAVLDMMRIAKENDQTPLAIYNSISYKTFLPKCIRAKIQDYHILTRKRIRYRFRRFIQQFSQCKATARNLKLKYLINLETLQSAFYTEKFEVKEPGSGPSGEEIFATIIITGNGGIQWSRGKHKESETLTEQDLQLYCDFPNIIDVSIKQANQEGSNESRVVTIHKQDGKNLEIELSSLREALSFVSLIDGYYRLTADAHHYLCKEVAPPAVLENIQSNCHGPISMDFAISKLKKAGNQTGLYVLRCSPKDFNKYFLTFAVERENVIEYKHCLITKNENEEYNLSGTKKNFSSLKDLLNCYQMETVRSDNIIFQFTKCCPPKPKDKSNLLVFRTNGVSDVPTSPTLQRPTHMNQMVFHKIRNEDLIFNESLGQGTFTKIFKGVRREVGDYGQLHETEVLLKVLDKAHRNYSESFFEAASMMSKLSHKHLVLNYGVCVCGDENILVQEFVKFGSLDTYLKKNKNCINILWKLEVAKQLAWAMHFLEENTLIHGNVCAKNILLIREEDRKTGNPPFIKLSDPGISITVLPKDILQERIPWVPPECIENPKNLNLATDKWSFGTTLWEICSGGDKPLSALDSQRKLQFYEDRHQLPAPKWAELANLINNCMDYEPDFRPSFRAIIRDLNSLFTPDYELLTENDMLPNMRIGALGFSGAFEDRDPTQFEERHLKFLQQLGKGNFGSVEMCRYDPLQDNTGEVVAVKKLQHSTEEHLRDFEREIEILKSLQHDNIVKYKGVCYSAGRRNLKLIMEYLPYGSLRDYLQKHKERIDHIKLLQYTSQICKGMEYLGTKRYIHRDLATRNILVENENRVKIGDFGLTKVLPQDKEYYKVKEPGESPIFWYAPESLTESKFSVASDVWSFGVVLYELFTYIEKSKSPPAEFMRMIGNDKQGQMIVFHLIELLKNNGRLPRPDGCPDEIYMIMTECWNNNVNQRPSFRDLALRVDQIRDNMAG
Method: as §1

NEK2(h) = NEK2(h) (Homo sapiens, UniProt P51955); test: Kinase profiling of R428; format: biochemical; details: 100 μM ATP, lower number = more robust inhibition
Method: as §1

PAK4(h) = PAK4(h) (Homo sapiens, UniProt O96013); test: Kinase profiling of R428; format: biochemical; details: 100 μM ATP, lower number = more robust inhibition
Sequence of PAK4(h) (O96013 whole entry): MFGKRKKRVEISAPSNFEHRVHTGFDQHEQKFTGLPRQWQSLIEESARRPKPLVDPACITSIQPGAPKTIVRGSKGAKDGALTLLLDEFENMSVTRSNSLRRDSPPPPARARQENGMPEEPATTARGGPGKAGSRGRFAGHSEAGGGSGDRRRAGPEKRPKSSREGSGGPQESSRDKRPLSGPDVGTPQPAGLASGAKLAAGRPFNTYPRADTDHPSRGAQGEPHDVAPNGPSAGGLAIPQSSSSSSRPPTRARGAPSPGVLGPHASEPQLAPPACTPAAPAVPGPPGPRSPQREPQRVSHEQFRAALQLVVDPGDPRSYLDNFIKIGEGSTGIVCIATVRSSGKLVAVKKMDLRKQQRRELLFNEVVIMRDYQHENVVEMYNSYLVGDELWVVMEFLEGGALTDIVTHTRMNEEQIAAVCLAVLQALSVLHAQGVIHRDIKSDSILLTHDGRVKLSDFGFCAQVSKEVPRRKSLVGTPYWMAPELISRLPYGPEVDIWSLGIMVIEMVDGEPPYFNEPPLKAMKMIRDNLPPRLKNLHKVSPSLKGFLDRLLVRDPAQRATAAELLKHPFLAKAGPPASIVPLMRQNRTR
Method: as §1

PDGFRβ(h) = PDGFRβ(h) (Homo sapiens, UniProt P09619); test: Kinase profiling of R428; format: biochemical; details: 100 μM ATP, lower number = more robust inhibition
Method: as §1

PKA(h) = PKA(h) (Homo sapiens, UniProt P17612); test: Kinase profiling of R428; format: biochemical; details: 100 μM ATP, lower number = more robust inhibition
Method: as §1

PKBα(h) = PKBα(h) (Homo sapiens, UniProt P31749); test: Kinase profiling of R428; format: biochemical; details: 100 μM ATP, lower number = more robust inhibition, read-out: efficiency in targeting PKBα(h)
Sequence of PKBα(h) (P31749 whole entry): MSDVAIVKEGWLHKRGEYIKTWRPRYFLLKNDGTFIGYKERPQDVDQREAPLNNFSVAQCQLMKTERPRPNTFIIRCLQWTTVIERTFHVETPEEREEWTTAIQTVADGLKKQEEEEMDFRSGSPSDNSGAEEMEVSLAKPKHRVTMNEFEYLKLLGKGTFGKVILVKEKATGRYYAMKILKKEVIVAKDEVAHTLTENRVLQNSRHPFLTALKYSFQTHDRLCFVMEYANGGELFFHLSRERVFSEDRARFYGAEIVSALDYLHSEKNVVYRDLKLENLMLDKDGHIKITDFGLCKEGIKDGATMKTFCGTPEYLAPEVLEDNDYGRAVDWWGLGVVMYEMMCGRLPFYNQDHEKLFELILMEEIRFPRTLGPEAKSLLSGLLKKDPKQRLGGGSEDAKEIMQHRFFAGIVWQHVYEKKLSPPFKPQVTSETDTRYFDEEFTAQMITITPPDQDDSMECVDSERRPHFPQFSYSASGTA
Method: as §1

Pim-2(h) = Pim-2(h) (Homo sapiens, UniProt Q9P1W9); test: Kinase profiling of R428; format: biochemical; details: 100 μM ATP, lower number = more robust inhibition
Method: as §1

ROCK-1(h) = ROCK-1(h) (Homo sapiens, UniProt Q13464); test: Kinase profiling of R428; format: biochemical; details: 100 μM ATP, lower number = more robust inhibition
Method: as §1

Ret(h) = Ret(h) (Homo sapiens, UniProt P07949); test: Kinase profiling of R428; format: biochemical; details: for efficiency in targeting Ret(h): 100 μM ATP, lower number = more robust inhibition
Sequence of Ret(h) (P07949 29-1114): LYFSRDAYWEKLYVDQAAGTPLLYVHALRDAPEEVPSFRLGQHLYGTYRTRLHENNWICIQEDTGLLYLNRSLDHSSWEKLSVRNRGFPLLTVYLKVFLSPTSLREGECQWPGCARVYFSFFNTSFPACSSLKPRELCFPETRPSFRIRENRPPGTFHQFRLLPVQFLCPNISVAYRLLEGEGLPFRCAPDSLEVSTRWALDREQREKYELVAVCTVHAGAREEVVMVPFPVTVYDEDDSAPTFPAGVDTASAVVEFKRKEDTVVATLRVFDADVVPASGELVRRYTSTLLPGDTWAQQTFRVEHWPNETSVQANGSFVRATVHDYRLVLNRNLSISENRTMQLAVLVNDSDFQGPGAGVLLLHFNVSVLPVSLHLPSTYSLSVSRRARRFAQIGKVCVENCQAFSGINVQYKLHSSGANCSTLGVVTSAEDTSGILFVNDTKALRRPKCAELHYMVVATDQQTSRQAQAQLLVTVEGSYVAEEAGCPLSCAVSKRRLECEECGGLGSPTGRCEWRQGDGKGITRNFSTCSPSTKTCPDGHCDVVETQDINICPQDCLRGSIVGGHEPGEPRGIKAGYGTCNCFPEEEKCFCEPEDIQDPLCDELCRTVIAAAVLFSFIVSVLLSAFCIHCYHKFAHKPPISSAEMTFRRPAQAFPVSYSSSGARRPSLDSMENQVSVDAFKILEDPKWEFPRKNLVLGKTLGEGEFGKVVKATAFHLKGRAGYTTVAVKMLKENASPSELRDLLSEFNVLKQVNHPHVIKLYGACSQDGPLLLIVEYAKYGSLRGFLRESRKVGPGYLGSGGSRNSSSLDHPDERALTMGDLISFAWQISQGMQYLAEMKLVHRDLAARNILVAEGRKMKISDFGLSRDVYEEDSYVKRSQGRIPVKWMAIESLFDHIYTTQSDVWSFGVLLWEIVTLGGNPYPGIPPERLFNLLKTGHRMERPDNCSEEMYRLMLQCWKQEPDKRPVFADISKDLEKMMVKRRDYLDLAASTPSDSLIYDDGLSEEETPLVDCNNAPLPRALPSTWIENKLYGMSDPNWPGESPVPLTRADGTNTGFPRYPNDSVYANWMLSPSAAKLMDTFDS
Method: as §1

Rsk3(h) = Rsk3(h) (Homo sapiens, UniProt Q15349); test: Kinase profiling of R428; format: biochemical; details: for efficiency in targeting Rsk3(h): 100 μM ATP, lower number = more robust inhibition
Sequence of Rsk3(h) (Q15349 whole entry): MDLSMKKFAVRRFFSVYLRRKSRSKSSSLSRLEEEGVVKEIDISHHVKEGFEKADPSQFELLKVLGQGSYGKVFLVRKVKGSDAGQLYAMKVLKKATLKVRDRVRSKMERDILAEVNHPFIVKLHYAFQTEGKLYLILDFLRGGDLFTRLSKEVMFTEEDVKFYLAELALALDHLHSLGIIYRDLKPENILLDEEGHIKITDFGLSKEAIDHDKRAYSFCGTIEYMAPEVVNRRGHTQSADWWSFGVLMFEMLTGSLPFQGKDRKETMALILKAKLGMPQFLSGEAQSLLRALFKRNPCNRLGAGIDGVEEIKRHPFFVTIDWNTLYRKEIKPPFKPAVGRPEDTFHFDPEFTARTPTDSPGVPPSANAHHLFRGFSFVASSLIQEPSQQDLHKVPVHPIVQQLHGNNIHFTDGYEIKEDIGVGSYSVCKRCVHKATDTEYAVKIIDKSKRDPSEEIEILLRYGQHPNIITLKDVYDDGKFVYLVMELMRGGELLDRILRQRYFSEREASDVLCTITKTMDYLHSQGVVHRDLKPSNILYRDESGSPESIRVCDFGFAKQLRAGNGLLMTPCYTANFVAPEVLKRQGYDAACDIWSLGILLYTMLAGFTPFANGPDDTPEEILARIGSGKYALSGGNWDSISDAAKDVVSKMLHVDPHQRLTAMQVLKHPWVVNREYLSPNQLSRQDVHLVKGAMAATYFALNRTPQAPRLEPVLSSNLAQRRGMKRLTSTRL
Method: as §1

TGEBR1(h) = TGEBR1(h) (Homo sapiens, UniProt P36897); test: Kinase profiling of R428; format: biochemical; details: 100 μM ATP, lower number = more robust inhibition
Method: as §1

ZIPK(h) = ZIPK(h) (Homo sapiens, UniProt O43293); test: Kinase profiling of R428; format: biochemical; details: 100 μM ATP, lower number = more robust inhibition
Method: as §1

cSRC(h) = cSRC(h) (Homo sapiens, UniProt P12931); test: Kinase profiling of R428; format: biochemical; details: 100 μM ATP, lower number = more robust inhibition
Method: as §1

UCN3 expression = test: Stage 7 treatment, real-time PCR of UCN3 (Example 6); format: cell-based, human; details: Stage 7, day 7, 2 μM in Stage 7 medium, H1-derived cells, mRNA
Method: Cells of the human embryonic stem cell line H1 (WA01) were seeded as single cells at 1×10^5 cells/cm^2 on MATRIGEL™ (1:30 dilution) coated dishes in E8 media. At about 70 to 80% confluency, the cultures were washed in 1× incomplete DPBS followed by incubation with 1× TrypLET™ Express Enzyme for 3 to 5 minutes at 37° C. The released cells were rinsed with E8 and spun at 1000 rpm for 5 minutes. The resulting cell pellet was resuspended in E8 supplemented with 10 μM Y-27632 and the single cell suspension was seeded at approximately 1.3 to 1.5×10^5 cells/cm^2. The cultures were fed every day with E8 medium and differentiation, according to the following protocol, was initiated 48 hrs. following seeding resulting in an about 90% starting confluency.
Stage 6 cells were cultured for seven days in BLAR medium supplemented with a 1:100 dilution of ITS-X; 20 mM glucose (final); 1.5 g/L sodium bicarbonate; 2% FAF-BSA; 10 μg/ml of heparin, 10 μM ZnSO4, 1 μM T3 as 3,3′, 5-triiodo-L-thyronine sodium salt, 10 μM ALK5 inhibitor II, 1 mM N-acetyl cysteine. […]
At Stage 7, day 7, mRNA was collected and expression of MAFA, UCN3, PDX1, NKX6.1, insulin and G6PC2 evaluated as compared to undifferentiated human stem cells. […]

Nc1nc(Nc2ccc3c(c2)CC[C@@H](N2CCCC2)CC3)nn1-c1cc2c(nn1)-c1ccccc1CCC2 [R428, 1H-1,2,4-Triazole-3,5-diamine, 1-(6,7-dihydro-5H-benzo[6,7]cyclohepta[1,2-c]pyridazin-3-yl) N3-[(7S)-6,7,8,9-tetrahydro-7-(1-pyrrolidinyl)-5H-benzocyclohepten-2-yl]-]
efficiency in targeting CDK5/p35(h) (CDK5/p35(h); R428 @ 1 μM): 101
efficiency in targeting CDK5/p35(h) (CDK5/p35(h); R428 @ 10 μM): 94
efficiency in targeting CHK2(h) (CHK2(h); R428 @ 1 μM): 47
efficiency in targeting CHK2(h) (CHK2(h); R428 @ 10 μM): 9
efficiency in targeting Eph A 2(h) (Eph A 2(h); R428 @ 1 μM): 54
efficiency in targeting Eph A 2(h) (Eph A 2(h); R428 @ 10 μM): 12
efficiency in targeting GSK3 a(h) (GSK3 a(h); R428 @ 1 μM): 95
efficiency in targeting GSK3 a(h) (GSK3 a(h); R428 @ 10 μM): 105
efficiency in targeting GSK313(h) (GSK313(h); R428 @ 1 μM): 106
efficiency in targeting GSK313(h) (GSK313(h); R428 @ 10 μM): 99
efficiency in targeting IGF-1R(h) (IGF-1R(h); R428 @ 1 μM): 93
efficiency in targeting IGF-1R(h) (IGF-1R(h); R428 @ 10 μM): 58
efficiency in targeting IR(h) (IR(h); R428 @ 1 μM): 83
efficiency in targeting IR(h) (IR(h); R428 @ 10 μM): 24
efficiency in targeting IRAK4(h) (IRAK4(h); R428 @ 1 μM): 94
efficiency in targeting IRAK4(h) (IRAK4(h); R428 @ 10 μM): 51
efficiency in targeting JAK2(h) (JAK2(h); R428 @ 1 μM): 96
efficiency in targeting JAK2(h) (JAK2(h); R428 @ 10 μM): 41
efficiency in targeting NEK2(h) (NEK2(h); R428 @ 1 μM): 60
efficiency in targeting NEK2(h) (NEK2(h); R428 @ 10 μM): 10
efficiency in targeting PAK4(h) (PAK4(h); R428 @ 1 μM): 97
efficiency in targeting PAK4(h) (PAK4(h); R428 @ 10 μM): 73
efficiency in targeting PDGFRβ(h) (PDGFRβ(h); R428 @ 1 μM): 37
efficiency in targeting PDGFRβ(h) (PDGFRβ(h); R428 @ 10 μM): 21
efficiency in targeting PKA(h) (PKA(h); R428 @ 1 μM): 88
efficiency in targeting PKA(h) (PKA(h); R428 @ 10 μM): 35
activity at 1 µM (PKBα(h); R428 @ 1 μM): 87%
activity at 10 µM (PKBα(h); R428 @ 10 μM): 57%
efficiency in targeting Pim-2(h) (Pim-2(h); R428 @ 1 μM): 87
efficiency in targeting Pim-2(h) (Pim-2(h); R428 @ 10 μM): 74
efficiency in targeting ROCK-1(h) (ROCK-1(h); R428 @ 1 μM): 93
efficiency in targeting ROCK-1(h) (ROCK-1(h); R428 @ 10 μM): 41
efficiency in targeting Ret(h) (Ret(h); R428 @ 1 μM): 1
efficiency in targeting Ret(h) (Ret(h); R428 @ 10 μM): 1
inhibition of Ret (in words) (Ret(h); at 1 and 10 μM): potently inhibits
efficiency in targeting Rsk3(h) (Rsk3(h); R428 @ 1 μM): 2
efficiency in targeting Rsk3(h) (Rsk3(h); R428 @ 10 μM): 1
inhibition of RSK3 (in words) (Rsk3(h); at 1 and 10 μM): potently inhibits
efficiency in targeting TGEBR1(h) (TGEBR1(h); R428 @ 1 μM): 97
efficiency in targeting TGEBR1(h) (TGEBR1(h); R428 @ 10 μM): 69
efficiency in targeting ZIPK(h) (ZIPK(h); R428 @ 1 μM): 97
efficiency in targeting ZIPK(h) (ZIPK(h); R428 @ 10 μM): 46
efficiency in targeting cSRC(h) (cSRC(h); R428 @ 1 μM): 51
efficiency in targeting cSRC(h) (cSRC(h); R428 @ 10 μM): 10
UCN3 expression (UCN3 expression): reduces other beta cell maturation markers
